# Reference: US20210070748A1, “INHIBITORS OF BRUTONS TYROSINE KINASE” (Pharmacyclics LLC, priority 2015, published 2021)
# How the values were obtained:
# LCK = LCK (Homo sapiens, UniProt P06239); assay: Inhibition of a panel of kinases, in vitro HotSpot kinase assay: LCK; format: biochemical; conditions: D-compounds panel data; 1 μM ATP; read-out: IC50 LCK
# JAK3 = target: T1, JAK3 (Homo sapiens, UniProt P52333); assay: Inhibition of a panel of kinases, in vitro HotSpot kinase assay: JAK3; format: biochemical; conditions: D-compounds panel data; 1 μM ATP; read-out: IC50 JAK3
# T1 sequence (P52333 1-1124): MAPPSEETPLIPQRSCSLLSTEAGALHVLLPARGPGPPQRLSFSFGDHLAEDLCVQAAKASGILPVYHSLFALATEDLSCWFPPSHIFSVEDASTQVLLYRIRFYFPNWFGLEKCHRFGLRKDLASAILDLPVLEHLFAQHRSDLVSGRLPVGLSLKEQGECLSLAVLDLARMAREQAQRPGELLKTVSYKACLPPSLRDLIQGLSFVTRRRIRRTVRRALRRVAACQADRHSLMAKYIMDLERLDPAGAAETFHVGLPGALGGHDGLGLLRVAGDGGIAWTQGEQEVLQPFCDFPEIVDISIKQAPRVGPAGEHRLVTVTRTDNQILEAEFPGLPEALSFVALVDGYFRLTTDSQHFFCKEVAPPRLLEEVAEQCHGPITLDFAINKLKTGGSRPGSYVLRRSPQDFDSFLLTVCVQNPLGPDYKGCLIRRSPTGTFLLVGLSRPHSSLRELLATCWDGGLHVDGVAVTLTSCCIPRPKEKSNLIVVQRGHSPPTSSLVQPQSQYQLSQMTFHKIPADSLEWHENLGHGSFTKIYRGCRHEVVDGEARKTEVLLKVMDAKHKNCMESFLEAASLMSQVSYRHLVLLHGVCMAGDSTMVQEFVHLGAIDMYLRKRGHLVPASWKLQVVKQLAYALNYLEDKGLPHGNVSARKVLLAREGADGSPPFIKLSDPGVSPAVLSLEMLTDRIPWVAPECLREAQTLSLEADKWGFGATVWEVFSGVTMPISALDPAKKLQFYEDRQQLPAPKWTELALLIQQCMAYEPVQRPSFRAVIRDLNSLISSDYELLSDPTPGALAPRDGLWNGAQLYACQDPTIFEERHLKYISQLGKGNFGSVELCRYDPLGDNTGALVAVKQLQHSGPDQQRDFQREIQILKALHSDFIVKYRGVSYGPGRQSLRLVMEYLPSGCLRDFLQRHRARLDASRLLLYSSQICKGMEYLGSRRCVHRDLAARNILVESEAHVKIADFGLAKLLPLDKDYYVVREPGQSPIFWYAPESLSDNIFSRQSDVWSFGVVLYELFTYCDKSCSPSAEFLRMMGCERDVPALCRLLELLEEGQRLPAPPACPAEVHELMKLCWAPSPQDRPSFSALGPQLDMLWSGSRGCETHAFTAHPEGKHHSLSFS
# LCK, sequence (P06239 whole entry): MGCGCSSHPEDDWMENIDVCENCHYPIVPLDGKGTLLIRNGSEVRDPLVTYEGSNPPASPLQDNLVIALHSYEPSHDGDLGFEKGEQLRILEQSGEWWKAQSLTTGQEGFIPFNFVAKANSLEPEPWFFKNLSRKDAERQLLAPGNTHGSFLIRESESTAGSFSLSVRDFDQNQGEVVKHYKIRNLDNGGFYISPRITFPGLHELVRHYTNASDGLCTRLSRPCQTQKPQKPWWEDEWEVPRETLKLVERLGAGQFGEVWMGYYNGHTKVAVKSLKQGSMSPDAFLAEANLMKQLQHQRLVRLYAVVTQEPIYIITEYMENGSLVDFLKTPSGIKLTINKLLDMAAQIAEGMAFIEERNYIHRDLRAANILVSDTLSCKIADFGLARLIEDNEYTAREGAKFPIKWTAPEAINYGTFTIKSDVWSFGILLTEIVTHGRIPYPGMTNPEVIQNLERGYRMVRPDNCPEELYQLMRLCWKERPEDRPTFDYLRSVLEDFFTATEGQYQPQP
Structure (SMILES),IC50 (LCK) [nM],IC50 (JAK3) [nM]
"C[C@@H]1[C@H](NC(=O)c2ccc(C3CC3)cc2F)CCCN1c1cnc(C(N)=O)c(Nc2ccc(S(=O)(=O)N3CCN(C)CC3)cc2)n1 [Example D-130, 5-[(2R,3R)-3-(4-cyclopropyl-2-fluorobenzamido)-2-methylpiperidin-1-yl]-3-({4-[(4-methylpiperazin-1-yl)sulfonyl]phenyl}amino)pyrazine-2-carboxamide]",1000 to 10000,> 10000
"Cc1ccc(-c2cnc([C@@H]3CCCN(c4cnc(C(N)=O)c(Nc5cc(C)ns5)n4)[C@@H]3C)[nH]2)cc1 [Example D-131, 3-[(3-methyl-1,2-thiazol-5-yl)amino]-5-[(2R,3R)-2-methyl-3-[5-(4-methylphenyl)-1H-imidazol-2-yl]piperidin-1-yl]pyrazine-2-carboxamide]",100 to 1000,100 to 1000
"C[C@@H]1[C@H](NC(=O)c2ccc(C3CC3)cc2F)CCCN1c1cnc(C(N)=O)c(Nc2ccc(CN3CCN(C)CC3)cn2)n1 [Example D-132, 5-[(2R,3R)-3-(4-cyclopropyl-2-fluorobenzamido)-2-methylpiperidin-1-yl]-3-({5-[(4-methylpiperazin-1-yl)methyl]pyridin-2-yl}amino)pyrazine-2-carboxamide]",1000 to 10000,> 10000
"C[C@@H]1[C@H](NC(=O)c2ccc(C3CC3)cc2F)CCCN1c1cnc(C(N)=O)c(Nc2ccc(S(C)(=O)=O)cc2)n1 [Example D-133, 5-[(2R,3R)-3-(4-cyclopropyl-2-fluorobenzamido)-2-methylpiperidin-1-yl]-3-[(4-methanesulfonylphenyl)amino]pyrazine-2-carboxamide]",100 to 1000,1000 to 10000
"C[C@@H]1[C@H](NC(=O)c2ccc(C3CC3)cc2F)CCCN1c1cnc(C(N)=O)c(Nc2ccc(C3(C)CCN(C4CCC4)CC3)cc2)n1 [Example D-134, 3-{[4-(1-cyclobutyl-4-methylpiperidin-4-yl)phenyl]amino}-5-[(2R,3R)-3-(4-cyclopropyl-2-fluorobenzamido)-2-methylpiperidin-1-yl]pyrazine-2-carboxamide]",10 to 100,100 to 1000
"C[C@@H]1[C@H](NC(=O)c2ccc(C3CC3)cc2)CCCN1c1cnc(C(N)=O)c(Nc2cnn(C)c2)n1 [Example D-135, 5-[(2R,3R)-3-(4-cyclopropylbenzamido)-2-methylpiperidin-1-yl]-3-[(1-methyl-1H-pyrazol-4-yl)amino]pyrazine-2-carboxamide]",100 to 1000,1000 to 10000
"Cc1ccc(-c2cnc([C@H]3CCCN(c4cnc(C(N)=O)c(Nc5cc(C)ns5)n4)C3)[nH]2)cc1 [Example D-136, 3-[(3-methyl-1,2-thiazol-5-yl)amino]-5-[(3S)-3-[5-(4-methylphenyl)-1H-imidazol-2-yl]piperidin-1-yl]pyrazine-2-carboxamide]",100 to 1000,1000 to 10000
"Cc1ccc(-c2cnc([C@@H]3CCCN(c4cnc(C(N)=O)c(Nc5cc(C)ns5)n4)C3)[nH]2)cc1 [Example D-137, 3-[(3-methyl-1,2-thiazol-5-yl)amino]-5-[(3R)-3-[5-(4-methylphenyl)-1H-imidazol-2-yl]piperidin-1-yl]pyrazine-2-carboxamide]",1000 to 10000,> 10000
"C[C@@H]1[C@H](NC(=O)c2ccc(C3CC3)cc2F)CCCN1c1cnc(C(N)=O)c(Nc2ccc(C3(C)CCN(C4CC4)CC3)cc2)n1 [Example D-138, 5-[(2R,3R)-3-(4-cyclopropyl-2-fluorobenzamido)-2-methylpiperidin-1-yl]-3-{[4-(1-cyclopropyl-4-methylpiperidin-4-yl)phenyl]amino}pyrazine-2-carboxamide]",10 to 100,10 to 100
"C[C@@H]1[C@H](NC(=O)c2ccc(C3CC3)cc2F)CCCN1c1cnc(C(N)=O)c(Nc2ccc(S(=O)(=O)N3CCCC3)cc2)n1 [Example D-139, 5-[(2R,3R)-3-(4-cyclopropyl-2-fluorobenzamido)-2-methylpiperidin-1-yl]-3-{[4-(pyrrolidine-1-sulfonyl)phenyl]amino}pyrazine-2-carboxamide]",> 10000,> 10000
"C[C@@H]1[C@H](NC(=O)c2ccc(C3CC3)cc2)CCCN1c1cnc(C(N)=O)c(Nc2cc(CN3CCCCC3)ns2)n1 [Example D-140, 5-[(2R,3R)-3-(4-cyclopropylbenzamido)-2-methylpiperidin-1-yl]-3-{[3-(piperidin-1-ylmethyl)-1,2-thiazol-5-yl]amino}pyrazine-2-carboxamide]",10 to 100,100 to 1000
"CN1CCC(n2cc(Nc3nc(N4CCC[C@@H](n5ccc6cc(C7CC7)ccc6c5=O)C4)cnc3C(N)=O)cn2)CC1 [Example D-141, 5-[(3R)-3-(6-cyclopropyl-1-oxo-1,2-dihydroisoquinolin-2-yl)piperidin-1-yl]-3-{[1-(1-methylpiperidin-4-yl)-1H-pyrazol-4-yl]amino}pyrazine-2-carboxamide]",100 to 1000,1000 to 10000

# The next lines start with the values.
IC50 (LCK) [nM],IC50 (JAK3) [nM],Structure (SMILES)
10 to 100,100 to 1000,"C[C@H]1CC[C@@H](NC(=O)c2ccc(C3CC3)cc2)CN1c1cnc(C(N)=O)c(Nc2cnn(C)c2)n1 [Example D-142, 5-[(2S,5R)-5-(4-cyclopropylbenzamido)-2-methylpiperidin-1-yl]-3-[(1-methyl-1H-pyrazol-4-yl)amino]pyrazine-2-carboxamide]"
1000 to 10000,> 10000,"C[C@@H]1CC[C@@H](NC(=O)c2ccc(C3CC3)cc2)CN1c1cnc(C(N)=O)c(Nc2cnn(C)c2)n1 [Example D-143, 5-[(2R,5R)-5-(4-cyclopropylbenzamido)-2-methylpiperidin-1-yl]-3-[(1-methyl-1H-pyrazol-4-yl)amino]pyrazine-2-carboxamide]"
1000 to 10000,> 10000,"C[C@H]1CC[C@H](NC(=O)c2ccc(C3CC3)cc2)CN1c1cnc(C(N)=O)c(Nc2cnn(C)c2)n1 [Example D-144, 5-[(2S,5S)-5-(4-cyclopropylbenzamido)-2-methylpiperidin-1-yl]-3-[(1-methyl-1H-pyrazol-4-yl)amino]pyrazine-2-carboxamide]"
1000 to 10000,> 10000,"C[C@@H]1CC[C@H](NC(=O)c2ccc(C3CC3)cc2)CN1c1cnc(C(N)=O)c(Nc2cnn(C)c2)n1 [Example D-145, 5-[(2R,5S)-5-(4-cyclopropylbenzamido)-2-methylpiperidin-1-yl]-3-[(1-methyl-1H-pyrazol-4-yl)amino]pyrazine-2-carboxamide]"
10 to 100,1000 to 10000,"C[C@@H]1[C@H](NC(=O)c2ccc(C3CC3)cc2)CCCN1c1cnc(C(N)=O)c(Nc2ccc(N3CCN(C)CC3)c(F)c2)n1 [Example D-146, 5-[(2R,3R)-3-(4-cyclopropylbenzamido)-2-methylpiperidin-1-yl]-3-{[3-fluoro-4-(4-methylpiperazin-1-yl)phenyl]amino}pyrazine-2-carboxamide]"
100 to 1000,1000 to 10000,"Cn1cc(Nc2nc(N3CCCC4(C3)CN(c3ccc(C5CC5)cc3)C(=O)O4)cnc2C(N)=O)cn1 [Example D-147, 5-[3-(4-cyclopropylphenyl)-2-oxo-1-oxa-3,7-diazaspiro[4.5]decan-7-yl]-3-[(1-methyl-1H-pyrazol-4-yl)amino]pyrazine-2-carboxamide]"
100 to 1000,1000 to 10000,"Cc1cccc(-c2cnc(C3CCCN(c4cnc(C(N)=O)c(Nc5cnn(C)c5)n4)C3)[nH]2)c1 [Example D-148, 3-[(1-methyl-1H-pyrazol-4-yl)amino]-5-{3-[5-(3-methylphenyl)-1H-imidazol-2-yl]piperidin-1-yl}pyrazine-2-carboxamide]"
